What was measured:
US28 [1] = molecular target: T1, US28 (Human cytomegalovirus, UniProt P69332); assay: Inhibition of binding of native chemokine ligands (fractalkine, eotaxin) to US28; parameters: species or system human CMV (HCMV); conditions: native chemokine ligands such as fractalkine and eotaxin, among others
chemokine receptors = assay: Binding specificity among chemokine receptors tested
US28 [2] = molecular target: T1, US28; assay: Binding affinity of fractalkine to US28; parameters: species or system human CMV (HCMV); conditions: read-out: K1 (affinity of binding to US28)

T1 sequence (P69332 whole entry): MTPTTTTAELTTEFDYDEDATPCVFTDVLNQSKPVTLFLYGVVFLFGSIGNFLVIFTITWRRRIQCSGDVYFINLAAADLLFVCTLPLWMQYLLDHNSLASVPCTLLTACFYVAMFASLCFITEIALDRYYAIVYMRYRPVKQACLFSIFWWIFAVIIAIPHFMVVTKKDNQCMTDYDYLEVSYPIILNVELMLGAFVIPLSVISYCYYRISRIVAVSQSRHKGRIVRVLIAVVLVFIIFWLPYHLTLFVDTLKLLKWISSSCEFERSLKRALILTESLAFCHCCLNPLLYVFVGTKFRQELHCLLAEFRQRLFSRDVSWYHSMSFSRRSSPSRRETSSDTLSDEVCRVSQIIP

| Molecule | inhibition of the binding of native chemokine ligands to US28 (US28 [1]) | specificity of binding to US28 among all chemokine receptors tested (chemokine receptors) | Ki (US28 [2]) |
| --- | --- | --- | --- |
| CCN1CCC[C@H]1CNC(=O)c1c(OC)ccc(I)c1O [S(−)-IBZM, S(−)-3-Iodo-2-hydroxy-6-methoxy-N[(1-ethyl-2-pyrrolidinyl)methyl]benzamide] | effective inhibitor | bind specifically to US28 | – |
| fractalkine: the CX3C chemokine, expressed on certain endothelial cell surfaces and dendritic cells; native ligand of US28 (protein, UniProt P78423 25-397, looked up) Fractalkine: QHHGVTKCNITCSKMTSKIPVALLIHYQQNQASCGKRAIILETRQHRLFCADPKEQWVKDAMQHLDRQAAALTRNGGTFEKQIGEVKPRTTPAAGGMDESVVLEPEATGESSSLEPTPSSQEAQRALGTSPELPTGVTGSSGTRLPPTPKAQDGGPVGTELFRVPPVSTAATWQSSAPHQPGPSLWAEAKTSEAPSTQDPSTQASTASSPAPEENAPSEGQRVWGQGQSPRPENSLEREEMGPVPAHTDAFQDWGPGSMAHVSVVPVSSEGTPSREPVASGSWTPKAEEPIHATMDPQRLGVLITPVPDAQAATRRQAVGLLAFLGLLFCLGVAMFTYQSLQGCPRKMAGEMAEGLRYIPRSCGSNSYVLVPV | – | – | ~0.05 nM |
